# Test system: male Std:ddY mice
# Experiment: Phenyl-1,4-benzoquinone-induced writhing test
# Format: in vivo
# Details: for inhibition in vivo at 10 mg/kg / ED50: Mus musculus, po; for inhibition in vivo at 10 mg/kg: 1 h, read-out: Inhibitory percentage (%); for inhibition in vivo at 10 mg/kg / Inhibitory percentage (%): orally administered at a dose of 10 mg/kg, 60 minutes before PBQ; for ED50 / ED50 (mg/kg po): oral administration, logit analysis; for ED50 / ED50 (mg/kg po) / Inhibitory percentage (%): writhing inhibition; for ED50: read-out: ED50 (mg/kg po)
# Method: Phenyl-1,4-benzoquinone-induced Writhing Test Referring to the method disclosed in Proc. Soc. exp. Biol. […] For oral administration, a test compound was suspended in 0.5% tragacanth solution. […] In the control group, a physiological saline solution containing 10% Tween 80 and 10% ethanol was administered in the case of subcutaneous administration, or a 0.5% tragacanth solution was administered in the case of oral administration. The number of writhing movements in the test compound-treated group was compared with that in the control group, and the writhing inhibitory percentage was calculated therefrom and considered as an analgesic effect. Writhing inhibitory percentage (%)=[(A−B)/A]×100 In the above equation, A means the number of writhing movements in the control group, and B means the number of writhing movements in the test compound-treated group. From the writhing inhibitory percentage of the test compound, ED50 (mg/kg) was calculated by logit analysis.
Structure (SMILES),inhibition in vivo at 10 mg/kg [%],ED50 [mg/kg],other results
"COc1cc(CC(=O)Nc2cccc(-c3ccc(F)cc3)c2)ccc1OCCN [Example 124, 4-(2-aminoethoxy)-N-[3-(4-fluorophenyl)phenyl]-3-methoxyphenylacetamide]",100,≤ 1,ED50 (mg/kg po) (listed as Ex. 124): 0.71 mg/kg
"COc1cc(CC(=O)Nc2cccc(-c3ccccc3Cl)c2)ccc1OCCN [Example 125, 4-(2-aminoethoxy)-N-[3-(2-chlorophenyl)phenyl]-3-methoxyphenylacetamide]",93,≤ 1,ED50 (mg/kg po) (listed as Ex. 125): 0.71 mg/kg
"COc1cc(CC(=O)Nc2cccc(-c3cccc(Cl)c3)c2)ccc1OCCN [Example 126, 4-(2-aminoethoxy)-N-[3-(3-chlorophenyl)phenyl]-3-methoxyphenylacetamide]",89.9,2.19,–
"COc1cc(CC(=O)Nc2cccc(-c3cc(F)cc(F)c3)c2)ccc1OCCN [Example 129, 4-(2-aminoethoxy)-N-[3-(3,5-difluorophenyl)phenyl]-3-methoxyphenylacetamide]",76.9,1.89,–
"COc1cc(CC(=O)Nc2cccc(-c3ccccc3C)c2)ccc1OCCN [Example 131, 4-(2-aminoethoxy)-3-methoxy-N-[3-(2-methylphenyl)phenyl]-phenylacetamide]",100,1.1,–
"COc1cc(CC(=O)Nc2cccc(-c3c(C)cc(C)cc3C)c2)ccc1OCCN [Example 133, 4-(2-aminoethoxy)-3-methoxy-N-[3-(2,4,6-trimethylphenyl)-phenyl]phenylacetamide]",94,1.28,–
"COc1cc(CC(=O)Nc2cccc(-c3cccc(C(C)C)c3)c2)ccc1OCCN [Example 136, 4-(2-aminoethoxy)-N-[3-(3-isopropylphenyl)phenyl]-3-methoxyphenylacetamide]",99,3.11,–
"COc1cc(CC(=O)Nc2cccc(-c3ccc(C(F)(F)F)cc3)c2)ccc1OCCN [Example 140, 4-(2-aminoethoxy)-3-methoxy-N-[3-(4-trifluoromethylphenyl)-phenyl]phenylacetamide]",91,2.18,–
"COc1cc(CC(=O)Nc2cccc(-c3ccccc3C(F)(F)F)c2)ccc1OCCN [Example 142, 4-(2-aminoethoxy)-3-methoxy-N-[3-(2-trifluoromethylphenyl)-phenyl]phenylacetamide]",98.9,1.19,–
"COc1cc(CC(=O)Nc2cccc(-c3ccccc3-c3ccccc3)c2)ccc1OCCN [Example 143, 4-(2-aminoethoxy)-3-methoxy-N-[3-(2-phenylphenyl)phenyl]-phenylacetamide]",73.2,3.72,–
"COc1cc(CC(=O)Nc2cccc(-c3cccc(-c4ccccc4)c3)c2)ccc1OCCN [Example 145, 4-(2-aminoethoxy)-3-methoxy-N-[3-(3-phenylphenyl)phenyl]-phenylacetamide]",85.9,–,–
"COC(=O)c1cccc(-c2cccc(NC(=O)Cc3ccc(OCCN)c(OC)c3)c2)c1 [Example 146, 4-(2-aminoethoxy)-N-[3-(3-methoxycarbonylphenyl)phenyl]-3-methoxyphenylacetamide]",76.9,2.68,–
"COc1cc(CC(=O)Nc2cccc(-c3cccc(OC(F)(F)F)c3)c2)ccc1OCCN [Example 150, 4-(2-aminoethoxy)-3-methoxy-N-[3-(3-trifluoromethoxyphenyl)-phenyl]phenylacetamide]",100,1.32,–
"COc1cc(CC(=O)Nc2cccc(-c3ccccc3SC)c2)ccc1OCCN [Example 158, 4-(2-aminoethoxy)-3-methoxy-N-[3-(2-methylthiophenyl)-phenyl]phenylacetamide]",95.1,2.12,–
"COc1cc(CC(=O)Nc2cccc(-c3ccsc3)c2)ccc1OCCN [Example 161, 4-(2-aminoethoxy)-3-methoxy-N-[3-(thiophen-3-yl)phenyl]-phenylacetamide]",79.4,2.79,–
"COc1cc(CC(=O)Nc2cccc(-c3cccc4ccccc34)c2)ccc1OCCN [Example 163, 4-(2-aminoethoxy)-3-methoxy-N-[3-(naphthalen-1-yl)phenyl]-phenylacetamide]",87.9,1.61,–
"COc1cc(CC(=O)Nc2cccc(-c3cc4ccccc4o3)c2)ccc1OCCN [Example 166, 4-(2-aminoethoxy)-N-[3-(benzofuran-2-yl)phenyl]-3-methoxyphenylacetamide]",96,2.4,–

Structure (SMILES),inhibition in vivo at 10 mg/kg [%],ED50 [mg/kg],other results
"COc1cc(CC(=O)Nc2cccc(-c3cccc(C(C)(C)C)c3)c2)ccc1OCCN [Example 169, 4-(2-aminoethoxy)-N-[3-(3-tert-butylphenyl)phenyl]-3-methoxyphenylacetamide]",100,1.29,–
"COc1cc(CC(=O)Nc2cc(-c3ccccc3)ccc2F)ccc1OCCN [Example 170, 4-(2-aminoethoxy)-N-[(2-fluoro-5-phenyl)phenyl]-3-methoxyphenylacetamide]",–,–,ED50 (mg/kg po): 1.06 mg/kg; Inhibitory percentage (%): 87.9%
"COc1cc(CC(=O)Nc2cc(-c3ccccc3)cc(F)c2OC)ccc1OCCN [Example 171, 4-(2-aminoethoxy)-N-[(2-methoxy-3-fluoro-5-phenyl)phenyl]-3-methoxyphenylacetamide]",–,–,ED50 (mg/kg po) (listed as Ex. 171): 0.96 mg/kg; Inhibitory percentage (%): 94.0%
"COc1cc(CC(=O)Nc2cc(-c3ccccc3)ccc2C)ccc1OCCN [Example 172, 4-(2-aminoethoxy)-N-[(2-methyl-5-phenyl)phenyl]-3-methoxyphenylacetamide]",–,–,ED50 (mg/kg po): 4.42 mg/kg; Inhibitory percentage (%): 75.9%
"COc1cc(CC(=O)Nc2ccc(C)c(-c3ccccc3)c2)ccc1OCCN [Example 173, 4-(2-aminoethoxy)-3-methoxy-N-[(3-phenyl-4-methyl)phenyl]-phenylacetamide]",–,–,ED50 (mg/kg po) (listed as Ex. 173): 0.87 mg/kg; Inhibitory percentage (%): 100%
"COc1ccc(-c2ccccc2)cc1NC(=O)Cc1ccc(OCCN)c(OC)c1 [Example 177, 4-(2-aminoethoxy)-3-methoxy-N-[(2-methoxy-5-phenyl)phenyl]-phenylacetamide]",–,–,ED50 (mg/kg po): 3.41 mg/kg; Inhibitory percentage (%): 78.9%
"COc1cc(CC(=O)Nc2cc(-c3ccccc3)cc(C(F)(F)F)c2)ccc1OCCN [Example 178, 4-(2-aminoethoxy)-3-methoxy-N-[(3-trifluoromethyl-5-phenyl)-phenyl]phenylacetamide]",–,–,ED50 (mg/kg po): 1.65 mg/kg; Inhibitory percentage (%): 100%
"COc1cc(CC(=O)Nc2ccc(OC(F)(F)F)c(-c3ccccc3)c2)ccc1OCCN [Example 179, 4-(2-aminoethoxy)-3-methoxy-N-[(3-phenyl-4-trifluoromethoxy)-phenyl]phenylacetamide]",–,–,ED50 (mg/kg po) (listed as Ex. 179): 0.95 mg/kg; Inhibitory percentage (%): 100%
"COc1cc(CC(=O)Nc2cc(-c3ccccc3)c(C)c(-c3ccccc3)c2)ccc1OCCN [Example 181, 4-(2-aminoethoxy)-3-methoxy-N-[(4-methyl-3,5-diphenyl)-phenyl]phenylacetamide]",–,–,ED50 (mg/kg po): 1.11 mg/kg; Inhibitory percentage (%): 80.9%
"COc1cc(CC(=O)Nc2cccc(-c3cccc(C4CCCCC4)c3)c2)ccc1OCCN [Example 183, 4-(2-aminoethoxy)-N-[3-(3-cyclohexylphenyl)phenyl]-3-methoxyphenylacetamide]",83.5,3.09,–
"COc1cc(CC(=O)Nc2cccc(-c3ccccc3C(C)(C)C)c2)ccc1OCCN [Example 184, 4-(2-aminoethoxy)-N-[3-(2-tert-butylphenyl)phenyl]-3-methoxyphenylacetamide]",100,≤ 1,ED50 (mg/kg po) (listed as Ex. 184): 0.60 mg/kg
"COc1cc(CC(=O)Nc2cccc([C@H]3CC[C@@H](C(C)(C)C)CC3)c2)ccc1OCCN [Example 194, 4-(2-aminoethoxy)-N-[3-[(cis)-4-tert-butylcyclohexan-1-yl]-phenyl]-3-methoxyphenylacetamide]",96.2,1.05,–
"COc1cc(CC(=O)Nc2cccc([C@H]3CC[C@H](C(C)(C)C)CC3)c2)ccc1OCCN [Example 195, 4-(2-aminoethoxy)-N-[3-[(trans)-4-tert-butylcyclohexan-1-yl]-phenyl]-3-methoxyphenylacetamide]",77.7,–,–
"COc1cc(CC(=O)Nc2cccc(N3CCCCC3)c2)ccc1OCCN [Example 197, 4-(2-aminoethoxy)-3-methoxy-N-[3-(piperidin-1-yl)phenyl]-phenylacetamide]",89.1,5.26,–
"COc1cc(CC(=O)Nc2cccc(N3CCCC(C4CCCCC4)C3)c2)ccc1OCCN (centres unmarked) [Example 199, 4-(2-aminoethoxy)-N-[3-(3-cyclohexylpiperidin-1-yl)phenyl]-3-methoxyphenylacetamide]",71.6,–,–
"COc1cc(CC(=O)Nc2cccc(N3CCCC(c4ccccc4)C3)c2)ccc1OCCN (centres unmarked) [Example 200, 4-(2-aminoethoxy)-3-methoxy-N-[3-(3-phenylpiperidin-1-yl)-phenyl]phenylacetamide]",84.2,–,–
